From ChEMBL document CHEMBL1125762, “Synthesis and pharmacological evaluation of 1-(aminomethyl)-3,4-dihydro-5-hydroxy-1H-2-benzopyrans as dopamine D1 selective ligands” (J Med Chem, 1991) come the findings set out here.

Assay [1] addresses T1, 5-hydroxytryptamine receptor 1A (Rattus norvegicus, UniProt P19327).
T1 sequence (P19327 whole entry): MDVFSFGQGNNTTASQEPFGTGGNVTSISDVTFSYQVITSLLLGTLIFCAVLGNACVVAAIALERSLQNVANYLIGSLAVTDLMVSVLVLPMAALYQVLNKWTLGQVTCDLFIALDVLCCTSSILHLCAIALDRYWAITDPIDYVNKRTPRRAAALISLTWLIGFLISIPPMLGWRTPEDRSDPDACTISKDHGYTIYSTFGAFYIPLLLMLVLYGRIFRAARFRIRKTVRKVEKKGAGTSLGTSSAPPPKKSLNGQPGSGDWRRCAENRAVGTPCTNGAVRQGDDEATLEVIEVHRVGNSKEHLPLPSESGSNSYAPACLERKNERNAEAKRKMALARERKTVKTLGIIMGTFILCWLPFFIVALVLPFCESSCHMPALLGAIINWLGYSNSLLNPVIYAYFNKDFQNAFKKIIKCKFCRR
Kind of assay: Compound was tested in vitro for binding affinity for 5-hydroxytryptamine 1A receptor.

The target in assay [2] is Serotonin 2 (5-HT2) receptor (Rattus norvegicus, UniProt P30994+P08909+P14842). Kind of assay: Compound was tested in vitro for binding affinity for 5-hydroxytryptamine 2 receptor. The assay is classed as protein assay.
Assay [3] has as its target T2, Adrenergic receptor alpha-1 (Homo sapiens, UniProt P35348+P25100+P35368).
T2 sequence (P35348 whole entry): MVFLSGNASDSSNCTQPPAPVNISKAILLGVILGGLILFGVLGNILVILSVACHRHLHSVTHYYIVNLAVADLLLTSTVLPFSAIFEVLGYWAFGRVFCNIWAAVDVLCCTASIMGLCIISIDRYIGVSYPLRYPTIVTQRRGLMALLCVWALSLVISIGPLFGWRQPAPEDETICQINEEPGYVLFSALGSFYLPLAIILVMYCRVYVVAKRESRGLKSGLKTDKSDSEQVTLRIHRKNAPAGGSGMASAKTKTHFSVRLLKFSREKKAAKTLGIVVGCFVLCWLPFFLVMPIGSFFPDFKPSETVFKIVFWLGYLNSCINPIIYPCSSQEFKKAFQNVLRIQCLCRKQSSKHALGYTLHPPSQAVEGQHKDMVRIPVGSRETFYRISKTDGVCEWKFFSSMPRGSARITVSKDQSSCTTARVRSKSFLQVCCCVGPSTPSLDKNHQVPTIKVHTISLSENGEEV
T2 sequence (P25100 whole entry): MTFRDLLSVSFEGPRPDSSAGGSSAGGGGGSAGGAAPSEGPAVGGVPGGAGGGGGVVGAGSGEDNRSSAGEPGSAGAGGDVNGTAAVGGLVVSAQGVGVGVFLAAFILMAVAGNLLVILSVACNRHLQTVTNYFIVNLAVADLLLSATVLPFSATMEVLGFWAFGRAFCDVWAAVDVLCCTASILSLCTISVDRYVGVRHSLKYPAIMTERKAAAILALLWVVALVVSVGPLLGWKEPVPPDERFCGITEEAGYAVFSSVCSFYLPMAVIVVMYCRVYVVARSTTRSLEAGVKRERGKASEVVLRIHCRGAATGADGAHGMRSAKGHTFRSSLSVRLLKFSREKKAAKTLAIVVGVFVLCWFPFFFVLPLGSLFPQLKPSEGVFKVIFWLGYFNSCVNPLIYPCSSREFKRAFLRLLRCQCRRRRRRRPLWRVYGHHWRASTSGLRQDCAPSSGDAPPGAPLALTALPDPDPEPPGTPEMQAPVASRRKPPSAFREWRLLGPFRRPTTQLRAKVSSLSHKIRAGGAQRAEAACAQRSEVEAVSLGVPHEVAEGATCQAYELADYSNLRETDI
T2 sequence (P35368 whole entry): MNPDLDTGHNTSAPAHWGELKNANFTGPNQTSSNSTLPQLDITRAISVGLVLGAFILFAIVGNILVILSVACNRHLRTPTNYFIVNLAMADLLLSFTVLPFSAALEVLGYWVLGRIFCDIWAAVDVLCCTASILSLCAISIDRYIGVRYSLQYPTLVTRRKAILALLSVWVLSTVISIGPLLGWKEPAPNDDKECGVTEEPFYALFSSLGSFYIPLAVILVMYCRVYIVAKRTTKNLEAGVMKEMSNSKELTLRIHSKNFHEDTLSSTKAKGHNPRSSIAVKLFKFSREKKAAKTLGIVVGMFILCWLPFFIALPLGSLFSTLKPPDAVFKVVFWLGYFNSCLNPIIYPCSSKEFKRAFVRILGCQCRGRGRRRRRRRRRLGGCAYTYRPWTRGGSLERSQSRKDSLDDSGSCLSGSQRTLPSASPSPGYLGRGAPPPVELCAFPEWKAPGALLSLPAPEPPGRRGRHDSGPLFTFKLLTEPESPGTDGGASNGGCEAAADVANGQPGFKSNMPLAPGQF
In words: Compound was tested in vitro for binding affinity for alpha-1 adrenergic receptor. The assay is classed as protein assay.

Another assay deals with D(1) dopamine receptor (Carassius auratus, UniProt P35406). In words: In vitro inhibition of dopamine stimulated adenylate cyclase.
Assay [4] addresses T3, Adrenergic receptor alpha-2 (Homo sapiens, UniProt P08913+P18825+P18089).
T3 sequence (P08913 whole entry): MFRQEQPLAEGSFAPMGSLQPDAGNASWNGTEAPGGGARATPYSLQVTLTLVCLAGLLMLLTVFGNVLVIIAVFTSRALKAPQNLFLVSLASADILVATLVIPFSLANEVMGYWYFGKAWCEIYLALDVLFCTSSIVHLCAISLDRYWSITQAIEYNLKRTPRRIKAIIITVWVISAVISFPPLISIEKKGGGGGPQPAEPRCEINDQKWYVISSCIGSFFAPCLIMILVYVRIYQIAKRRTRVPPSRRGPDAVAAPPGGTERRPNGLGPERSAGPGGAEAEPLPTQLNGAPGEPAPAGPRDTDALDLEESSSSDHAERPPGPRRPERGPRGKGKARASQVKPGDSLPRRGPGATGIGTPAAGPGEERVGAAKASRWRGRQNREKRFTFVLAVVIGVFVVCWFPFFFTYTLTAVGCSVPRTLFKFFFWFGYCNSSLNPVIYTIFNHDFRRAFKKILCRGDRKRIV
T3 sequence (P18825 whole entry): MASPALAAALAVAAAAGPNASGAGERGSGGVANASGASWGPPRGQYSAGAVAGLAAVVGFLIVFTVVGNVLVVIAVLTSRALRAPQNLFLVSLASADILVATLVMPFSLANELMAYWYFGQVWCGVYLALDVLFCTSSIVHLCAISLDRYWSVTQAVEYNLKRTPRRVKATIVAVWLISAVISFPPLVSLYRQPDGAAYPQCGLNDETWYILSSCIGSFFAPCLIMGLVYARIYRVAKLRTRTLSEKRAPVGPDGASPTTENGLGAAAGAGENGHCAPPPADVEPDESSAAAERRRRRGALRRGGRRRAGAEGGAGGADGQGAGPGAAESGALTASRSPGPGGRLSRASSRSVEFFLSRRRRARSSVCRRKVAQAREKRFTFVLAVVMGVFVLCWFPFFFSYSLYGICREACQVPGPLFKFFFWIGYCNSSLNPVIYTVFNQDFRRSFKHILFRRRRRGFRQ
T3 sequence (P18089 whole entry): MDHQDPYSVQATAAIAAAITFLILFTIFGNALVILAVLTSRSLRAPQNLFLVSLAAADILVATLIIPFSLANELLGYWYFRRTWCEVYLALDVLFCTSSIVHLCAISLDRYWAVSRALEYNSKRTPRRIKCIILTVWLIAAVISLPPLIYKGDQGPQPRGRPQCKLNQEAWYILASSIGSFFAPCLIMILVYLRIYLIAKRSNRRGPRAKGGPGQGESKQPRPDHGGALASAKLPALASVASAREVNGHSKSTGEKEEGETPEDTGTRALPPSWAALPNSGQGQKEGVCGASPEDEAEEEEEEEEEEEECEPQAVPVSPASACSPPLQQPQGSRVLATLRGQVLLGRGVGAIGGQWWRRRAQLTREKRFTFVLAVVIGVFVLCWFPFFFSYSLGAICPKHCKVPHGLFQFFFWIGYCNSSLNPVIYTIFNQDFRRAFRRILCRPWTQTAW
In words: Compound was tested in vitro for binding affinity for alpha-2 adrenergic receptor. Type of assay: protein assay.

Another assay concerns the target D(1A) dopamine receptor (Rattus norvegicus, UniProt P18901). In words: Binding affinity for dopamine receptor D1.
In the next assay the target is D(2) dopamine receptor (Rattus norvegicus, UniProt P61169). Kind of assay: Binding affinity for dopamine receptor D2.
In assay [5] the target is Sodium-dependent dopamine transporter (Homo sapiens, UniProt Q01959). Kind of assay: In vitro binding affinity for dopamine uptake site.
Assay [6] deals with Rattus norvegicus. In words: Compound was tested for the net contralateral rotations in rats 2 hr after administration of 0.1 uM/kg dopamine agonist; Activity expressed as net contralateral rotations / 2 hr. Type of assay: functional.
Assay [7] concerns Rattus norvegicus. In words: Compound was tested for the net contralateral rotations in rats 2 hr after administration of 1 uM/kg dopamine agonist; Activity expressed as net contralateral rotations / 2 hr. The assay is classed as functional.
The target in assay [8] is Beta-2 adrenergic receptor (Canis lupus familiaris, UniProt P54833). Kind of assay: Compound was tested in vitro for binding affinity for beta receptor.
The test system of assay [9] is Rattus norvegicus. In words: Compound was tested for the net contralateral rotations in rats 2 hr after administration of 0.1 umol/kg, predosed with SCH-23390 (0.1 umol/kg sc), 40 min prior to injection of test compound; Activity expressed as net contralateral rotations / 2 hr.
Assay [10] relates to Rattus norvegicus. In words: Compound was tested for the net contralateral rotations in rats 2 hr after administration of 1.7 umol/kg, predosed with SCH-23390 (0.05 umol/kg sc), 40 min prior to injection of test compound; Activity expressed as net contralateral rotations / 2ho. The assay is classed as functional.
For assay [11], the system named is Rattus norvegicus. Kind of assay: Compound was tested for the net contralateral rotations in rats 2 hr after sc administration of 1.7 umol/kg dopamine agonist; Activity expressed as net contralateral rotations / 2 hr. Type of assay: functional.
The subject of assay [12] is Rattus norvegicus. In words: Compound was tested for the net contralateral rotations in rats, 2 hr after sc administration of 0.43 umol/kg dopamine agonist; Activity expressed as net contralateral rotations / 2 hr. The assay is classed as functional.

D(1) dopamine receptor, sequence (P35406 whole entry): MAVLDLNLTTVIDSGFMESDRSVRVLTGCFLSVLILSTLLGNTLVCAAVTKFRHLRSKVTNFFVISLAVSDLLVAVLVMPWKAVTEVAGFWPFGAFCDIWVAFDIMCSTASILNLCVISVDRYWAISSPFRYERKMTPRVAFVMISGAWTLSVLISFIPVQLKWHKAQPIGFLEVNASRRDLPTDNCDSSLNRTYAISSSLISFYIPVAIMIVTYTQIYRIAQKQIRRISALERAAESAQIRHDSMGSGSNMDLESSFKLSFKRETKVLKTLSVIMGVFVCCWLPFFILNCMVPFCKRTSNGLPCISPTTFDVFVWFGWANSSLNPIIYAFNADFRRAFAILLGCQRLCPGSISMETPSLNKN
D(2) dopamine receptor, sequence (P61169 whole entry): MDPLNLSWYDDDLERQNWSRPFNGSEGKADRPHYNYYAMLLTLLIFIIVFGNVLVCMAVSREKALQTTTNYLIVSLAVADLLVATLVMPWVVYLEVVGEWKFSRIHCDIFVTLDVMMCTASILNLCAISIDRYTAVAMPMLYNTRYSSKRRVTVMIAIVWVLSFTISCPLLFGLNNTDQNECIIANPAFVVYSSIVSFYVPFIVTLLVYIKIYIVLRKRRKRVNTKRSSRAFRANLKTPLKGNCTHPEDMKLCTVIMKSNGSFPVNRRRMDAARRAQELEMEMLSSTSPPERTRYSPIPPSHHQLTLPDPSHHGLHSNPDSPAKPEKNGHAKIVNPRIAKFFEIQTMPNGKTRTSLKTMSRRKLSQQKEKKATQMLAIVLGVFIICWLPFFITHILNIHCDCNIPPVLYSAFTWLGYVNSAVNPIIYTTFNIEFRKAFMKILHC
D(1A) dopamine receptor, sequence (P18901 whole entry): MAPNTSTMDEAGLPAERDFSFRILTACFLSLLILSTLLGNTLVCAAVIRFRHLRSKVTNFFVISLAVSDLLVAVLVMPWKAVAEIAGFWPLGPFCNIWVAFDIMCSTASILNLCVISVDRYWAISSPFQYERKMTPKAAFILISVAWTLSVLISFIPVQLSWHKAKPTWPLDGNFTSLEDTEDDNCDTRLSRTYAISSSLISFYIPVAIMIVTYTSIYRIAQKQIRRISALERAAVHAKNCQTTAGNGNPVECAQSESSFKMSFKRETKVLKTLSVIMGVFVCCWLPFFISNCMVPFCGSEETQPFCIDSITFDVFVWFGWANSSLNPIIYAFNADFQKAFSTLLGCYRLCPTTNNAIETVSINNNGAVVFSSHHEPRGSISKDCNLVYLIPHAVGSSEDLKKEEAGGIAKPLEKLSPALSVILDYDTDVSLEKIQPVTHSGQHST
Beta-2 adrenergic receptor, sequence (P54833 whole entry): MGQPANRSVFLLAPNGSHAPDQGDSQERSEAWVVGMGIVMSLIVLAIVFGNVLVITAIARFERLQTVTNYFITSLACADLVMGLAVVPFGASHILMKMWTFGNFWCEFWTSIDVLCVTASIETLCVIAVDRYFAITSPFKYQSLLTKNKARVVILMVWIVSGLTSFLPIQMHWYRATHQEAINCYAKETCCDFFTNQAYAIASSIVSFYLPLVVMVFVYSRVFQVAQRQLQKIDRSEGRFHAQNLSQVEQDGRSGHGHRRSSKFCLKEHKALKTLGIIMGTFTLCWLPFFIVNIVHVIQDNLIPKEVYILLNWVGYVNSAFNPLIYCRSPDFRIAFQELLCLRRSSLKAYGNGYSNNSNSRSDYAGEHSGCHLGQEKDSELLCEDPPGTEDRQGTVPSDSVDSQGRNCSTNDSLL
Sodium-dependent dopamine transporter, sequence (Q01959 whole entry): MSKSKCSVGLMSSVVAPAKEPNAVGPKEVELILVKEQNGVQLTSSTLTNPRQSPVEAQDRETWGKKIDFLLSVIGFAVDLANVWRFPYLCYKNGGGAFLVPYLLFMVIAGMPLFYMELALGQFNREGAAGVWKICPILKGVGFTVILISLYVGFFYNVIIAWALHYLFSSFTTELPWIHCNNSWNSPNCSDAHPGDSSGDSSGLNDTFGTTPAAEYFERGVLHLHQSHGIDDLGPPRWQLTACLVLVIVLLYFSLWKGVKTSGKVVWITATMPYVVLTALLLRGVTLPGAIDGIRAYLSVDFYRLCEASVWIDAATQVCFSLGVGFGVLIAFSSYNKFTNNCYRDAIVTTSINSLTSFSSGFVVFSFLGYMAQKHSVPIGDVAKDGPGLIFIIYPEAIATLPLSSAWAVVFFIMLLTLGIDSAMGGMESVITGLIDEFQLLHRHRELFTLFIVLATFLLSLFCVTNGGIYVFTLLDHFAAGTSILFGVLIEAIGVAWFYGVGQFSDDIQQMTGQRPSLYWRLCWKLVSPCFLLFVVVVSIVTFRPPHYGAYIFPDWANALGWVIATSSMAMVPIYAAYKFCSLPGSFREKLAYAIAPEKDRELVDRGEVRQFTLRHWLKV

On to `Br.Cc1ccc2c(c1O)C[C@@H](C1CCCCC1)O[C@H]2CN`, for which the Ki is 54.1 nM in [1]; 242 nM in assay [2]; above 30000 nM in assay [3]; 100 nM on D(1) dopamine receptor; 358 nM in [4]; 86.4 nM at D(1A) dopamine receptor. Moreover, the Ki at D(2) dopamine receptor is above 30000 nM; in [5] it was 1870 nM; in assay [8], 19200 nM. Besides, the Activity with Rattus norvegicus [6] is recorded as 227; with Rattus norvegicus [7], 751; in the assay on Rattus norvegicus [9] it was 4.
With `CNC[C@@H]1O[C@H](C2CCCCC2)Cc2c1ccc(C)c2O`, the Ki turned out to be 121 nM on D(1) dopamine receptor, 263 nM at D(1A) dopamine receptor and 4610 nM on D(2) dopamine receptor.
As to `COc1ccc2c(c1O)C[C@@H](c1ccccc1)O[C@H]2CN`, the Ki was 247 nM at D(1) dopamine receptor, 166 nM at D(1A) dopamine receptor and above 30000 nM on D(2) dopamine receptor.
With `NC[C@H]1O[C@H](c2ccccc2)Cc2c1ccc(Br)c2O`, the Ki at D(1) dopamine receptor was found to be 197 nM; on D(1A) dopamine receptor, 366 nM; at D(2) dopamine receptor it was 1960 nM.
Consider `NC[C@@H]1O[C@H](C2CCCCC2)Cc2c1ccc(O)c2O`, for which the Ki on D(1A) dopamine receptor turned out to be 5.4 nM; on D(2) dopamine receptor, 1120 nM.
On to `Cc1ccc2c(c1O)C[C@@H](C1CCCCC1)O[C@H]2CN(C)C`, for which the Ki on D(1) dopamine receptor was determined as 125 nM; at D(1A) dopamine receptor, 284 nM; at D(2) dopamine receptor, 18000 nM.
As for `Oc1cc2c(cc1O)[C@@H](c1ccccc1)CNCC2` [(R)-SKF-38393], the results for the Activity in the assay with Rattus norvegicus [10], with Rattus norvegicus [11] and in the assay on Rattus norvegicus [12] were 47, 608 and 241, respectively.
Consider `CCCNC[C@@H]1O[C@H](C2CCCCC2)Cc2c1ccc(C)c2O`, for which the Ki was found to be 454 nM on D(1) dopamine receptor, 2820 nM at D(1A) dopamine receptor and 2630 nM on D(2) dopamine receptor.
In the case of `NC[C@@H]1O[C@H](c2ccccc2)Cc2c(O)cccc21`, the inhibition constant Ki was 52.5 nM at D(1) dopamine receptor, 103 nM on D(1A) dopamine receptor and above 30000 nM on D(2) dopamine receptor.
As for `Cl.NC[C@@H]1O[C@H](c2ccccc2)Cc2c1ccc(Br)c2O`, the Ki is 312 nM in assay [1]; 6360 nM in assay [2]; 1820 nM in [3]; 32.4 nM on D(1) dopamine receptor; 360 nM in assay [4]; 5.1 nM at D(1A) dopamine receptor. For the same compound, the Ki on D(2) dopamine receptor was 569 nM; in [5], above 30000 nM; in [8], 18400 nM. In addition, the Activity with Rattus norvegicus [6] came out at 1007; in the assay on Rattus norvegicus [7] it was 748; in the assay with Rattus norvegicus [9], 151.
